One substance from patent publication US12318393B2, “Modulators of orphan nuclear receptors for NASH and other metabolic disorders” (Emory University, priority 2018, dated 2025) can be followed below.

This data set has as its system high-fat-fed C57BL/6 mice. As to the kind of experiment: High-fat-diet C57BL/6 mice, Compound 1 7.5 mg/kg with antagomiR-control or antagomiR-122. The class given is in vivo. Here is the method:
C57BL/6 mice were fed a 50% high fat diet (HFD) for four weeks. The control cohort received three hydrodynamic tail vein injections of a 5 μg antagomiR-control and six i.p injections of saline over three weeks. A second cohort was hydrodynamic tail vein injected with 5 μg antagomiR-122 (the reverse complement that inhibits activity of miR-122) three times and i.p injections of saline six times over three weeks. A third cohort was injected i.p. with Compound 1 (7.5 mg/kg) twice a week plus antagomiR-control once a week over the course of 3 weeks. The final cohort was injected i.p. with Compound 1 (7.5 mg/kg) twice a week plus antagomiR-122 injections once a week over the course of 3 weeks.
High Fat diet fed mice. C57BL/6 male mice were fed for 8 weeks a 50% high fat diet (Envigo, DIETTD150235). All mice were kept in a pathogen-free facility, under a 12 h light/dark cycle. Research on mice was approved by the Hebrew University Institutional Animal Care and Ethics Committee.
Compound 1 and AntagomiR injections to mice. C57BL/6 male mice, 7-8 weeks old, or Sgp130FC, 9-month-old male mice, were injected i.p. with 7.5 mg/kg Compound 1 dissolved in saline and 3% DMSO. Saline was injected as control. Mice were hydrodynamic tail vain injected with antagomiR-122 or antagomiR-control (negative control) (5 μg/mouse in 1.5 ml saline). Mice were sacrificed according to the legend of the figure describing the experimental results and the livers, white adipose and skeletal muscle tissues were frozen in liquid nitrogen or in OCT embedded frozen blocks, for further RNA and histologic analysis. AntagomiRs were obtained from Sigma Aldrich, see Table 3.
Triglycerides and β-hydroxybutyrate quantification. To determine the liver and muscle lipid content, muscle and liver tissues (40-80 mg) were homogenized in 0.5 ml of chloroform: Tris solution (v/v, 1:1), the homogenate was transferred to 1 ml of chloroform: methanol solution (v/v, 2:1) centrifuged at 3000 rpm for 10 min. The organic phase was mixed with 5% Triton X100 in chloroform, dried and re-dissolved in water. After lipid extraction, TG concentration in samples was measured with Triglyceride Quantification Kit (BioVision), according to the manufactures instructions. β-hydroxybutyrate was determined utilizing commercial colorimetric kits (BioVision) directly from plasma samples.
In an effort to determine whether the mechanism of action of miR-122 and Compound 1 are aligned at the same pathway, an experiment was designed in which both molecules, together and each separately, were administered. In this study, mice were fed with a 50% HFD and therapy was initiated 4 weeks after the animals were already on a diet, to establish NASH prior to treatment. Therapies (antagomiRs given once a week, due to a prolonged half time, and RS twice weekly, due to a plasma t/2 of 2.7 hrs) were initiated after 4 weeks and given for 3 weeks. The mice were weighed from week 3 and therapies initiated a week later. […] The liver was further analyzed to assess lipotoxicity. […] A surrogate marker for energy expenditure, β-hydroxybutyrate, was also measured. A reduction in energy expenditure is associated with reduced miR-122, and energy expenditure increased upon treating with Compound 1.
Male C57BL/6J mice, 7 to 8 weeks old, were housed randomly in standard cages and were fed a HFD, or atherogenic diet (consisting 1% Chol and 0.5% cholic acid, see also Table 3). All mice had free access to water during the experimental period. During the feeding period body weight was monitored every 3 days. In the HFD experiment, after 4 or 6 weeks, the resultant obese mice were treated with antagomiR-122 ([…] once a week for 3 weeks), or i.p. injected with Compound 1 (RORα agonist, 7.5 mg/kg twice a week for 3 weeks; or 15 mg/kg 3 times a week for 3 weeks). The obese control (HFD) group was administered only saline with DMSO and antagomiR-control. […]

On to “antagomiR-122: small synthetic RNA, 2'-O-Me/phosphorothioate modified, cholesterol-linked, reverse complement that inhibits activity of miR-122 (antisense ACAAACACCAUUGUCACAC; 2'-O-methyl, phosphorothioate, cholesterol-linked, pattern not given here) [reference compound]”, for which the final body weight (5 μg antagomiR hydrodynamic tail vein injection three times over three weeks, HFD) turned out to be 32 g. Besides, under “50% HFD, treatment for 3 weeks”, the “TG content in the muscle” value was “increased”.
